Patent US20100172889A1, “DEGRADABLE BIOMOLECULE COMPOSITIONS” (priority 2008, published 2010)

System: cellulase C
Conditions: PHMB present in lyophilized cellulose film with cellulase C
Procedure: Two test materials (A and B) were prepared. Material A is a lyophilized cellulose film with cellulase C, and material B is a lyophilized cellulose film with cellulase C plus antiseptic Polyhexamethylene Biguanide (PHMB). Lyophilized cellulose samples A and B were incubated under conditions 1 and 2 for one month. Using media of tryptic soy agar, the samples were put in the solution to perform enzymatic degradation. On the 2nd, 8th, and 14th day, the degrading solution was taken out and plated on the agar media. The agar media plates were incubated for one month according to condition 3.

Polyhexamethylene Biguanide [PHMB]
reduction in cellulase enzyme activity: no observable reduction in cellulase enzyme activity
